Reference: paper PMC12748266, “Testing antimicrobial peptides inhibiting protein synthesis in living E. coli and K. pneumoniae using bio-orthogonal non-canonical amino-acid tagging” (Frontiers in Microbiology, 2025)
No end group written: not given here.

Tested on: K. pneumoniae ribosomes
Test: In vitro translation assay (PURExpress, firefly luciferase) with purified ribosomes
Format: biochemical, K. pneumoniae ATCC 13883
Conditions: peptide at 5 μM, 30 min, 32 °C, luciferase luminescence, water control = 100%
Procedure: The ribosomes used in this study were purified as described previously ([Di Stasi et al., 2025]). Briefly, to purify the 70S ribosomes of ESKAPE pathogens, the bacterial strains E. faecium ATCC 19434 S. aureus ATCC 25923, K. pneumoniae ATCC 13883, A. baumannii ATCC 19606, P. aeruginosa ATCC 27853 and E. cloacae ATCC 13047 were grown in 2 L of Luria-Bertani (LB) medium, at 37 °C, until the mid-log phase was reached. After centrifugation at 7,000 rpm (12,000 × g) for 15 min at 20 °C (JLA rotor 8.1000), the bacterial pellet was resuspended in 50 mL of saline (0.9% w/v NaCl) and re-centrifuged at 15,000 rpm (27,000 × g) for 10 min at 20 °C (JA rotor 25.50). […] Finally, the solution was cleared of the last remaining impurities by centrifugation at 15,000 rpm (18,000 × g) for 15 min at 4 °C, and the ribosomes subjected to quantification by Nanodrop (A260). […]
The in vitro translation assay was performed by using the Δ ribosome from the E. coli PURExpress system New England Biolabs (NEB), as reported previously ([Di Stasi et al., 2025]; [Raulf et al., 2025]). […] Finally, 40 μL of luciferase assay substrate solution were added to the wells (Promega, E1501), and the luminescence measured using a plate reader (Tecan Infinite 200 PRO). The negative control of the test was nuclease-free water in place of the antibiotic, whose values were used to normalize the absolute luminescence values of the samples. […]

RRIRPRPPRLPRPRPR [Bac7(1–16)]
Inhibition of in vitro protein synthesis: 90%
